Results on 5 compounds are retold here after BindingDB's records for patent US9260439 (Pfizer, 2016).

This experiment deals with Phosphatidylinositol 3-kinase regulatory subunit alpha [Q431L,Q432E,D433V,Q434L,V435F,V436Q,K437G,E438P]/4,5-bisphosphate 3-kinase catalytic subunit alpha isoform (Homo sapiens, UniProt P42336). Nature of the experiment: Biochemical Assay. The text has this: PI3KA_Act: Genes encoding for full length p110alpha and p85alpha nSH-iSH2=niSH2 (p85a aminoacids 322-600) subunits of PI3Kalpha complex were subcloned from existing constructs into pFASTBAC Dual vector (Life Technologies, Carlsbad, Calif.) using standard cloning procedures. Gene encoding p110alpha subunit was subcloned into polyhedrine promoter while gene encoding p85alpha niSH2 domains was subcloned into p10 promoter. Additionally, Human Rhinovirus 3C Protease (HRV 3C) site was introduced between nSH2 and iSH2, replacing aminoacids 431-438 of p85alpha with […] HRV 3C recognition sequence, using standard QuickChange mutagenesis protocol (Agilent Technologies, CA). Recombinant baculovirus was generated using Bac-to-Bac protocol (Life Technologies, Carlsbad, Calif.). The biochemical assays of kinase activity of full-length PI3Kalpha (full-length p110alpha/p85a) or truncated PI3Kalpha (p110alpha/iSH2 p85a) were conducted using a fluorescence polarization format similar to the procedure of Yuan J., et al., (2011) "PF-04691502, a Potent and Selective Oral Inhibitor of PI3K and mTOR Kinases with Antitumor Activity, Mol Cancer Ther. 10, 2189-2199.
`C[C@]1(N2CCc3c(-c4cnc(N)nc4)nc(N4CCOCC4)nc32)CCN(C(=O)C2(CO)CC2)C1` [US9260439, 339]: affinity was put at a Ki of 0.08 nM. `C[C@]1(N2CCc3c(-c4cnc(N)nc4)nc(N4CCOCC4)nc32)CCN(C(=O)C2(F)CC2)C1` [US9260439, 331] came in with a Ki of less than 0.018 nM. The same measure for `CC(=O)NCC(=O)N1CC(N2CCc3c(-c4cnc(N)nc4)nc(N4CCOC[C@@H]4C)nc32)C1` [US9260439, 201]: 1.4 nM. The same measure for `C[C@]1(N2CCc3c(-c4cnc(N)nc4)nc(N4CCOCC4)nc32)CCN(C(=O)C2(O)CC2)C1` [US9260439, 338]: 0.071 nM; for `CC(C)(CO)C(=O)N1CC[C@](C)(N2CCc3c(-c4cnc(N)nc4)nc(N4CCOCC4)nc32)C1` [US9260439, 277]: 0.034 nM.

As usually defined, the Ki is the equilibrium dissociation constant of an inhibitor or competing ligand from its target. High values mean lower affinity, low ones higher affinity.
